Test results: patent US9539342B2, “Auristatin tyramine phosphate salts and auristatin aminoquinoline derivatives and prodrugs thereof” (ARIZONA BOARD OF REGENTS, A BODY CORPORATE OF THE STATE OF …, priority 2011, dated 2017)
In brackets after ≈: the same amount, converted by molar mass. Read-outs that look alike come from different tables or passages of the source.

Tests used:
[1] = Solubility in distilled water
Procedure: The remaining salts (3e-h) were prepared directly from the free acid 10b by treatment with the appropriate base or amino acid. The solubilities of each salt and of precursor 9 were measured in distilled water at room temperature.

[2] = system: murine P388 lymphocytic leukemia cell line; test: Murine P388 lymphocytic leukemia cell line growth inhibition; assay type: cell-based; conditions: for Activity against P388 (in words): murine P388 lymphocytic leukemia cell line
colon (KM20L2) = test: Human cancer cell line minipanel: KM20L2; assay type: cell-based; conditions: for GI50: read-out: GI50 KM20L2 (nanomolar value in parentheses)
breast (MCF-7) = test: Human cancer cell line minipanel: MCF-7; assay type: cell-based; conditions: for GI50: read-out: GI50 MCF-7 (nanomolar value in parentheses)
pancreas (BXPC-3) = test: Human cancer cell line minipanel: BXPC-3; assay type: cell-based; conditions: for GI50: read-out: GI50 BXPC-3 (nanomolar value in parentheses)
CNS (SF-268) = test: Human cancer cell line minipanel: SF-268; assay type: cell-based; conditions: for GI50: read-out: GI50 SF-268 (nanomolar value in parentheses)
prostate (DU-145) = test: Human cancer cell line minipanel: DU-145; assay type: cell-based; conditions: for GI50: read-out: GI50 DU-145 (nanomolar value in parentheses)
[3] = system: minipanel of human cancer cell lines; test: Minipanel of human cancer cell lines (summary); assay type: cell-based; conditions: for GI50 (order of magnitude over the cell lines): summary of cancer cell growth inhibition
lung (NCI-H460) = test: Human cancer cell line minipanel: NCI-H460; assay type: cell-based; conditions: for GI50: read-out: GI50 NCI-H460 (nanomolar value in parentheses)
[4] = Storage stability of the free phosphoric acid; assay type: physicochemical; conditions: storable for short periods as methanolic solution (<0.01 M at 4° C.)
Description: The most soluble were the sodium (3b) and potassium (3c) salts (Table 2).

[5] = murine lymphocytic leukemia (P388)
[6] = murine lymphocytic leukemia (P388), read-out: ED50 P388 (nanomolar value in parentheses)

## CC[C@H](C)[C@@H]([C@@H](CC(=O)N1CCC[C@H]1[C@H](OC)[C@@H](C)C(=O)NCCc1ccc(OP(=O)([O-])[O-])cc1)OC)N(C)C(=O)[C@@H](NC(=O)[C@H](C(C)C)N(C)C)C(C)C.[Li+].[Li+] [Compound 3a, Lithium Auristatin TP]
[1]; in distilled water at 23° C.
  Solubility: >65 mg/mL

## CC[C@H](C)[C@@H]([C@@H](CC(=O)N1CCC[C@H]1[C@H](OC)[C@@H](C)C(=O)NCCc1ccc(OP(=O)([O-])[O-])cc1)OC)N(C)C(=O)[C@@H](NC(=O)[C@H](C(C)C)N(C)C)C(C)C.[K+].[K+] [Compound 3c, Potassium Auristatin TP]
[2]
  Activity against P388 (in words): exceptional activity
[2]; [5]
  ED50 P388: 7.6 ng/mL
[2]; [6]
  EC50: 8.7 nM
[1]; in distilled water at 23° C.
  Solubility: >120 mg/mL

## C1COCCN1.CC[C@H](C)[C@@H]([C@@H](CC(=O)N1CCC[C@H]1[C@H](OC)[C@@H](C)C(=O)NCCc1ccc(OP(=O)(O)O)cc1)OC)N(C)C(=O)[C@@H](NC(=O)[C@H](C(C)C)N(C)C)C(C)C [Compound 3d, Morpholine Auristatin TP]
[1]; in distilled water at 23° C.
  Solubility: >72 mg/mL

## CC[C@H](C)[C@@H]([C@@H](CC(=O)N1CCC[C@H]1[C@H](OC)[C@@H](C)C(=O)NCCc1ccc(OP(=O)(O)O)cc1)OC)N(C)C(=O)[C@@H](NC(=O)[C@H](C(C)C)N(C)C)C(C)C.NC(CO)(CO)CO [Compound 3f, TRIS Auristatin TP]
[1]; in distilled water at 23° C.
  Solubility: >51 mg/mL

## CC[C@H](C)[C@@H]([C@@H](CC(=O)N1CCC[C@H]1[C@H](OC)[C@@H](C)C(=O)Nc1ccc2ncccc2c1)OC)N(C)C(=O)[C@@H](NC(=O)[C@H](C(C)C)N(C)C)C(C)C [Compound 5, Dov-Val-Dil-Dap-6-aminoquinoline]
Colon (KM20L2)
  GI50 KM20L2: 0.25 ng/mL (≈ 0.000345 µM)
  GI50: 0.35 nM
Breast (MCF-7)
  GI50 MCF-7: 0.14 ng/mL (≈ 0.000193 µM)
  GI50: 0.19 nM
Pancreas (BXPC-3)
  GI50 BXPC-3: 0.31 ng/mL (≈ 0.000428 µM)
  GI50: 0.43 nM
CNS (SF-268)
  GI50 SF-268: 0.16 ng/mL (≈ 0.000221 µM)
  GI50: 0.22 nM
[2]
  Activity against P388 (in words): exceptional activity
[2]; [5]
  ED50 P388: 2.6 ng/mL (≈ 0.00359 µM)
[2]; [6]
  EC50: 3.59 nM
Prostate (DU-145)
  GI50 DU-145: 0.3 ng/mL (≈ 0.000414 µM)
  GI50: 0.41 nM
[3]
  Activity against minipanel of human cancer cell lines (in words): similarly strong activity
  GI50 (order of magnitude over the cell lines): 10^−4 μg/mL
Lung (NCI-H460)
  GI50 NCI-H460: 0.36 ng/mL (≈ 0.000497 µM)
  GI50: 0.5 nM

## CC[C@H](C)[C@@H]([C@@H](CC(=O)N1CCC[C@H]1[C@H](OC)[C@@H](C)C(=O)NCCc1ccc(O)cc1)OC)N(C)C(=O)[C@@H](NC(=O)[C@H](C(C)C)N(C)C)C(C)C [Compound 9, Dov-Val-Dil-Dap-4-hydroxyphenethylamide]
[2]; Mus musculus, P388, read-out: ED50 P388 (nanomolar value in parentheses)
  EC50: 5 nM
[2]
  Activity against P388 (in words): exceptional activity
[2]; [5]
  ED50 P388: 3.6 ng/mL (≈ 0.00501 µM)
[1]
  Solubility: <1 mg/mL

## CCC(C)C(C(CC(=O)N1CCCC1C(OC)C(C)C(=O)NCCc1ccc(OP(=O)(O)O)cc1)OC)N(C)C(=O)C(NC(=O)C(C(C)C)N(C)C)C(C)C (stereo not drawn) [Compound 10b, Dov-Val-Dil-Dap-4-(dihydrophosphoryloxy)phenethylamide]
[4]
  Stability of the pure substance (in words): quite unstable

## Dov-Val-Dil-Dap-2-aminoquinoline [Compound 4]
Colon (KM20L2)
  GI50 KM20L2: 7.7 ng/mL
  GI50: 10.6 nM
Breast (MCF-7)
  GI50 MCF-7: 4.6 ng/mL
  GI50: 6.35 nM
Pancreas (BXPC-3)
  GI50 BXPC-3: 29 ng/mL
  GI50: 40.1 nM
CNS (SF-268)
  GI50 SF-268: 29 ng/mL
  GI50: 40.1 nM
[2]
  Activity against P388 (in words): exceptional activity
[2]; [5]
  ED50 P388: 31 ng/mL
[2]; [6]
  EC50: 42.8 nM
Prostate (DU-145)
  GI50 DU-145: 23 ng/mL
  GI50: 31.8 nM
[3]
  Activity against minipanel of human cancer cell lines (in words): similarly strong activity
  GI50 (order of magnitude over the cell lines): 10^−2-10^−3 μg/mL
Lung (NCI-H460)
  GI50 NCI-H460: 16 ng/mL
  GI50: 22.1 nM

## Sodium Auristatin TP [Compound 3b]
Colon (KM20L2)
  GI50 KM20L2: 0.61 ng/mL
  GI50: 0.72 nM
Breast (MCF-7)
  GI50 MCF-7: 0.68 ng/mL
  GI50: 0.81 nM
Pancreas (BXPC-3)
  GI50 BXPC-3: 46 ng/mL
  GI50: 54.6 nM
CNS (SF-268)
  GI50 SF-268: 1.25 ng/mL
  GI50: 1.48 nM
[2]
  Activity against P388 (in words): exceptional activity
[2]; [5]
  ED50 P388: <1 ng/mL
[2]; [6]
  EC50: < 1.2 nM
Prostate (DU-145)
  GI50 DU-145: 0.54 ng/mL
  GI50: 0.64 nM
[1]; in distilled water at 23° C.
  Solubility: >236 mg/mL
[3]
  Activity against minipanel of human cancer cell lines (in words): similarly strong activity
  GI50 (order of magnitude over the cell lines): 10^−2-10^−4 μg/mL
Lung (NCI-H460)
  GI50 NCI-H460: 0.88 ng/mL
  GI50: 1.05 nM
